Assay results: US20030224978A1, “Compounds and methods for modulating apoptosis” (McGill University, priority 1996, published 2003)
pIC50: −log10 of the molar value. Entries after “also recorded” stand apart in the source; their conditions may differ. Positions of bridges follow the written chain, without caps; N, C: chain ends. Residues, ends and D or L forms follow the SMILES beside them.

Columns and labels:
[1] = test system: bovine pulmonary artery endothelial cells; assay: Disruption of bovine endothelial cell adhesion; format: cell-based; conditions: 500 μg/ml, 30 minutes
Description: For use within one such assay, bovine pulmonary artery endothelial cells may be harvested by sterile ablation and digestion in 0.1% collagenase (type II; Worthington Enzymes, Freehold, N.J.). Cells may be maintained in Dulbecco's minimum essential medium supplemented with 10% fetal calf serum and 1% antibiotic-antimycotic at 37° C. in 7% CO2 in air. Cultures may be passaged weekly in trypsin-EDTA and seeded onto tissue culture plastic at 20,000 cells/cm^2. Endothelial cultures may be used at 1 week in culture, which is approximately 3 days after culture confluency is established. The cells may be seeded onto coverslips and treated (e.g., for 30 minutes) with modulating agent or a control compound at, for example, 500 μg/ml and then fixed with 1% paraformaldehyde. As noted above, disruption of cell adhesion may be determined visually within 24 hours, by observing retraction of the cells from one another. This assay evaluates the effect of a modulating agent on N-cadherin mediated cell adhesion.
Bovine pulmonary artery endothelial cells were harvested by sterile ablation and digestion in 0.1% collagenase (type II; Worthington Enzymes, Freehold, N.J.). Cells were maintained in Dulbecco's […] essential medium (Clonetics, San Diego, Calif.) supplemented with 10% fetal calf serum (Atlantic Biologicals, Nor cross, Ga.) and 1% antibiotic-antimycotic at 37° C. in 7% CO2 in air. Cultures were passaged weekly in trypsin-EDTA (Gibco, Grand Island, N.Y.) and seeded onto tissue culture plastic at 20,000 cells/cm^2 for all experiments. Endothelial cultures were used at 1 week in culture, which is approximately 3 days after culture confluency was established. The cells used in all protocols were between 4th passage and 10th passage. The cells were seeded onto coverslips and treated 30 minutes with N-Ac-CHAVC-NH2 (SEQ ID NO:10) or N-Ac-CHGVC-NH2 (SEQ ID NO:20) at 500 μg/ml and then fixed with 1% paraformaldehyde.

SKOV3 cells = assay: Disruption of human ovarian cancer cell (SKOV3) adhesion; format: cell-based; conditions: for activity on SKOV3 cell adhesion: 0.01-1 mg/mL, up to 48 hours; for effect on SKOV3 cell adhesion: final concentration of 1 mg/mL media, within 24 hours
Excerpt: Within one representative cell adhesion assay, the addition of a modulating agent to cells that express a cadherin results in disruption of cell adhesion. A “cadherin-expressing cell,” as used herein, may be any type of cell that expresses at least one cadherin on the cell surface at a detectable level, using standard techniques such as immunocytochemical protocols (Blaschuk and Farookhi, Dev. Biol. 136:564-567, 1989). Cadherin-expressing cells include endothelial (e.g., bovine pulmonary artery endothelial cells), epithelial and/or cancer cells (e.g., the human ovarian cancer cell line SKOV3 (ATCC #HTB-77)). For example, such cells may be plated under standard conditions that permit cell adhesion in the presence and absence of modulating agent (e.g., 500 μg/mL). Disruption of cell adhesion may be determined visually within 24 hours, by observing retraction of the cells from one another.
The human ovarian cancer cell line SKOV3 (ATCC #HTB-77) expresses N-cadherin. SKOV3 cells were cultured in a modified MEM-based media containing 10% FCS. Cells were grown in T-250 culture flasks and maintained by periodic subculturing. Cyclic peptides were tested on cells grown in individual wells of 96-well culture dishes (surface area of each well was 0.32 cm^2). Cells were harvested from flasks and seeded at a density of 50,000 cells per well in 0.1 mL media containing the cyclic peptides at concentrations of 1, 0.1, or 0.01 mg/mL, or in the absence of cyclic peptide. Media control wells were also established. Cultures were evaluated periodically by microscopic examination under both bright field and phase contrast conditions. Cultures were maintained for 48 hours.

in vitro = format: cell-based; conditions: human
Method in brief: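 Cytotoxicity assessed by MTT assay and proliferation by ³H-thymidine incorporation, with peptides tested at concentrations up to 100 μM.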

MDA-MB231 = format: cell-based, human; conditions: 3 h

Row | SMILES | effect on endothelial cell monolayer / morphology [1] | activity on SKOV3 cell adhesion (SKOV3 cells) | pIC50 (in vitro) | SKOV3 cell morphology (SKOV3 cells; 0.5 mg/ml, 24 hours) | SKOV3 cell morphology (SKOV3 cells; 0.5 or 1 mg/ml, 24-48 hours) | effect on SKOV3 cell adhesion (SKOV3 cells) | pIC50 (MDA-MB231)
1 | CC[C@H](C)[C@@H]1NC(=O)[C@H](CC(=O)O)NC(=O)[C@H](C(C)C)NC(=O)[C@H](C)NC(=O)[C@H](Cc2c[nH]cn2)NC(=O)[C@H](C)NC(=O)[C@@H](NC(C)=O)CSSC[C@@H](C(N)=O)NC1=O (Ac-CAHAVDIC-NH2; disulfide 1-8) | had no effect on endothelial cell morphology; also recorded: neither of the cyclic peptides show activity | inactive | < 4.00 |  |  |  | 
2 | CC(=O)N[C@H]1CSSC[C@@H](C(N)=O)NC(=O)[C@H](CC(=O)O)NC(=O)[C@H](C(C)C)NC(=O)[C@H](C)NC(=O)[C@H](Cc2c[nH]cn2)NC(=O)[C@H](C)NC1=O [N-Ac-CAHAVDC-NH2, N-Ac-Cys-Ala-His-Ala-Val-Asp-Cys-NH2] (Ac-CAHAVDC-NH2; disulfide 1-7) | had a slight effect; also recorded: retracted from one another | inactive | < 4.00 |  |  |  | 
3 | CC(=O)N[C@H]1CSSC[C@@H](C(N)=O)NC(=O)[C@H](C(C)C)NC(=O)[C@H](C)NC(=O)[C@H](Cc2c[nH]cn2)NC1=O [N-Ac-CHAVC-NH2, N-Ac-Cys-His-Ala-Val-Cys-NH2] | disrupted the endothelial cell monolayer; also recorded: retracted from one another |  |  | round-up | retract from one another and round-up | disrupted SKOV3 cell adhesion | < 4.00
4 | CC(=O)N[C@H]1CSSC[C@@H](C(N)=O)NC(=O)[C@H](CO)NC(=O)[C@H](C(C)C)NC(=O)[C@H](C)NC(=O)[C@H](Cc2c[nH]cn2)NC1=O [N-Ac-CHAVSC-NH2, N-Ac-Cys-His-Ala-Val-Ser-Cys-NH2] (Ac-CHAVSC-NH2; disulfide 1-6) | had no effect on endothelial cell morphology |  | < 4.00 |  |  |  | 
5 | CC(=O)N[C@H]1CSSC[C@@H](C(N)=O)NC(=O)[C@H](C(C)C)NC(=O)CNC(=O)[C@H](Cc2c[nH]cn2)NC1=O [N-Ac-CHGVC-NH2, reference compound] | inactive |  |  |  |  | had no affect on cell adhesion | < 4.00
